Assay: GHS categories as the set defines them, by LD50: 1 up to 5, 2 up to 50, 3 up to 300, 4 up to 2000, 5 above 2000 mg/kg
Details: rat; in vivo; po
Description: […]The data set underlying the modeling effort for this project was initially compiled by NICEATM and U.S. EPA’s CCTE. Briefly, LD50 data were collected from rat acute oral systemic toxicity tests, including limit tests, ranges/confidence intervals, and discrete LD50 values. The full data set included 21,200 LD50 entries for 15,688 substances. […] Data were reviewed to ensure that LD50 values with obvious errors in the extracted data such as unit conversion errors (e.g., comma and decimal separator misplacements) were either fixed or removed. After this review, 16,209 LD50 values remained. Many of the chemicals represented had multiple LD50 entries, requiring that a single representative value per Chemical Abstracts Service Registry Number (CASRN) identifier be defined to facilitate modeling efforts. Based on ATWG feedback and to define the representative LD50 as a protective value while accounting for the distribution across multiple LD50s, the median of the lowest quartile was computed using only discrete LD50 values (omitting limit test data and range and confidence interval data). A detailed summary of the data compilation is available online on the NICEATM webpage dedicated to the collaborative modeling project (NTP 2020).
[…][…] For categorical designations, limit test and range/confidence interval LD50 data were integrated wherever possible. As such, the number of chemicals with end point values/calls varies across the modeling end points (Table 3) based on whether chemicals had representative LD50 values and/or other data. If a chemical had both, the representative value was used to determine categorical calls rather than limit test data. Some data were useable only for certain end points and categories depending on the thresholds. For example, ranges that spanned multiple hazard categories were considered only for the binary (very toxic/nontoxic) end points and omitted from rendering a determination for hazard category assignment.
[…]The final data set comprising 11,992 chemicals was split into training and evaluation sets […], respectively. This process was performed semirandomly by ordering chemicals based on the five end points (categorical and continuous LD50 values) and partitioning every fourth record into the evaluation set accordingly. This approach was taken to ensure an equivalent distribution of the LD50 values and the different hazard categories between the training and the evaluation sets without supervised sampling of the chemicals based on structures (Figure 1A). The sources of the chemical structures were also kept equivalent between the two sets, with chemical structures obtained from DSSTox, being the highest quality, representing over 75% of each set (Figure 1B).

SMILES | GHS category
CC(C)(C)NC(=O)[C@@H]1CN(Cc2cccnc2)CCN1C[C@@H](O)C[C@@H](Cc1ccccc1)C(=O)N[C@H]1c2ccccc2C[C@H]1O | 5
Cc1cccc2ncc(C(=O)NC3CCCC3)c(=O)n12 | 3
CC(=O)OCC(=O)[C@@]1(OC(C)=O)[C@@H](C)C[C@H]2[C@@H]3C[C@H](F)C4=CC(=O)C=C[C@]4(C)[C@@]3(F)[C@@H](O)C[C@@]21C | 5
O=C(O)C(c1ccccc1Cl)N1CCc2sccc2C1 (configuration not stated) | 5
COC(=O)C(O)(c1cccs1)c1cccs1 | 5
CNc1ccc([N+](=O)[O-])cc1 | 5
CCCCCCCCCC[C@H]1O[C@H]1CCCCC(C)C | 5
CCN(CCCSc1nnnn1C)C(=O)C1CCCCC1 | 4
CCOCCN(Cc1ccc(Oc2ccc([N+](=O)[O-])cc2)cc1)C(=O)C(Cl)Cl | 5
C=C1c2cccc(O)c2C(=O)C2=C(O)[C@]3(O)C(=O)C(C(N)=O)=C(O)[C@@H](N(C)C)[C@@H]3[C@@H](O)[C@H]12 | 5
CCCCCCCCCCCC(=O)N(CC)CC | 5
CCC(=O)OC(OC(C(=O)O)[P+](=O)CCCCc1ccccc1)C(C)C (configuration not stated) | 5
N#CC1(N)CC1 | 4
C[S+](C)CC[C@@H](N)C(=O)O (racemic) | 5
C(=C\c1ccccc1)/CN1CCN(C(c2ccccc2)c2ccccc2)CC1 | 5
CC(SC(=O)c1cccs1)C(=O)NCC(=O)O (configuration not stated) | 5
CCCCCCCCCCCCCCCC(=O)NCC(=O)O | 5
CCCCCCCCCCCCCCCC(=O)OC | 5
CCCCC(=O)N(Cc1ccc(-c2ccccc2-c2nn[nH]n2)cc1)[C@H](C(=O)OCc1ccccc1)C(C)C | 4
CCCCC(CC)COC(=O)C1CCC(C(=O)OCC(CC)CCCC)CC1 (configuration not stated) | 5
O=C1NC(=O)C(c2ccccc2)(c2ccccc2O)N1 (configuration not stated) | 5

SMILES | GHS category
CCNC(=O)CCCSCc1nnnn1CC | 4
Cc1ccc(C(=O)COc2c(C(=O)c3ccc(Cl)c(C)c3Cl)c(C)nn2C)cc1 | 5
NC(=O)c1cc[n+](CC2=C(C(=O)O)N3C(=O)[C@@H](NC(=O)[C@H](c4ccccc4)S(=O)(=O)[O-])[C@@H]3SC2)cc1 | 5
O=C(Nc1ccc(NC(=O)c2cc3ccccc3c(N=Nc3cc(Cl)ccc3Cl)c2O)c(Cl)c1)c1cc2ccccc2c(N=Nc2cc(Cl)ccc2Cl)c1O | 5
C=CCSc1nc(N)c2c(C)coc2n1 | 5
Nc1c[n+](N2CCOCC2)no1 | 4
CCCCCC(=O)OCCC(C)C | 5
COc1cc(/N=N/c2c(Br)cc([N+](=O)[O-])cc2[N+](=O)[O-])c(NC(C)=O)cc1N(CCOC(C)=O)CCOC(C)=O | 5
CCCCCCCCCCCCCCCCCC(=O)OCC | 5
COc1ccccc1N1CCN(/C(=N\CC(C)C)Nc2ccc(Cl)c(Cl)c2)CC1 | 4
Cc1ccc(OC(=O)Cc2ccccc2)cc1 | 5
O=S(=O)(O)c1ccccc1Nc1ccc(C(=C2C=CC(=Nc3ccccc3)C=C2)c2ccc(Nc3ccccc3)cc2)cc1 | 5
Cc1ncc(CSSCc2cnc(C)c(O)c2CO)c(CO)c1O | 5
CC1=C(NC(=O)O)/C(=N/C(=O)CN)C=CC1(NC(=O)O)c1cccc(C2=CC=C/C(=N\C(=O)CN)C2C)c1 (configuration not stated) | 5
CCCCl | 5
COc1ccc2c(c1)CCN(c1ccccc1)C2c1ccc(Cl)cc1 (configuration not stated) | 4
CC(=O)Nc1cc2cccnc2c(N2CCN(CCO)CC2)n1 | 5
C=C(C)CCC[C@H](C)CCOC(=O)Cc1ccccc1 | 5
CC1CCCCCCCCCCCCC(=O)C1 (configuration not stated) | 5
O=S(=O)(O)c1cccc(Nc2nc(NCCO)nc(Nc3ccc(/C=C/c4ccc(Nc5nc(NCCO)nc(Nc6cccc(S(=O)(=O)O)c6)n5)cc4S(=O)(=O)O)c(S(=O)(=O)O)c3)n2)c1 | 5
NS(=O)(=O)C(F)(F)C(F)(F)C(F)(F)C(F)(F)C(F)(F)C(F)(F)C(F)(F)C(F)(F)F | 3

From the CATMoS acute toxicity set (Mansouri et al. 2021)
